Tests used:
Human COX II = target: T1, Human COX II (Homo sapiens, UniProt P35354); assay: Evaluation of COX II activity in vitro (recombinant enzyme, PGE2 ELISA); type: biochemical; conditions: 10 μM arachidonic acid, pre-incubation 10-20 minutes, pH 8.0; read-out: Human COX II ID50
T1 construct: made in house; host or cells: SF9 insect cells, recombinant baculovirus (transfer vector pVL1393)
T1 sequence (P35354 18-604): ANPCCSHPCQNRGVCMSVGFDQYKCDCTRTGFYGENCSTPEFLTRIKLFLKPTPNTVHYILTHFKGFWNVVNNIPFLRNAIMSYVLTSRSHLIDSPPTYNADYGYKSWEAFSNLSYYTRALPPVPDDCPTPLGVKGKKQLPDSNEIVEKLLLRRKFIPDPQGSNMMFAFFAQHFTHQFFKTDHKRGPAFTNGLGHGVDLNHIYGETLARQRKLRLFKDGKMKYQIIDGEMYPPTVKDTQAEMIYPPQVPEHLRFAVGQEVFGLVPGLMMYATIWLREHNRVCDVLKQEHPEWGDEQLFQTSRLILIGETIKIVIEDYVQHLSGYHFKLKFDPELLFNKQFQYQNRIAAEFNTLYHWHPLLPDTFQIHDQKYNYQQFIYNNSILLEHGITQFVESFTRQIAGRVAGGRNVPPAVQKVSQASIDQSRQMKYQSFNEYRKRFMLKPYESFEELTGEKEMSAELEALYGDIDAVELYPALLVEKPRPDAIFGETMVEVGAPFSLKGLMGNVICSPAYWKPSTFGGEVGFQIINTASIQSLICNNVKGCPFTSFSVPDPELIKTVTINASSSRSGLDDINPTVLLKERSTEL
Protocol: (§1) Evaluation of COX I and COX II activity in vitro
The COX II inhibition activity of the compounds of this invention illustrated in the Examples was determined by the following methods.
(§2) a. Preparation of recombinant COX baculoviruses
(§3) A 2.0 kb fragment containing the coding region of either human or murine COX-I or human or murine COX-II was cloned into a BamH1 site of the baculovirus transfer vector pVL1393 (Invitrogen) to generate the baculovirus transfer vectors for COX-I and COX-II in a manner similar to the method of D. R. O'Reilly et al (Baculovirus Expression Vectors: A Laboratory Manual (1992)). Recombinant baculoviruses were isolated by transfecting 4 μg of baculovirus transfer vector DNA into SF9 insect cells ([…]) along with 200 ng of linearized baculovirus plasmid DNA by the calcium phosphate method. See M. D. Summers and G. E. Smith, A Manual of Methods for Baculovirus Vectors and Insect Cell Culture Procedures, Texas Agric. Exp. Station Bull. 1555 (1987). Recombinant viruses were purified by three rounds of plaque purification and high titer (10E7-10E8 pfu/ml) stocks of virus were prepared. For large scale production, SF9 insect cells were infected in 10 liter fermentors (0.5×10^6 /ml) with the recombinant baculovirus stock such that the multiplicity of infection was 0.1. After 72 hours the cells were centrifuged and the cell pellet homogenized in Tris/Sucrose (50 mM: 25%, pH 8.0) containing 1% 3-[(3-cholamidopropyl)dimethylammonio]-1-propanesulfonate (CHAPS). The homogenate was centrifuged at 10,000'G for 30 minutes, and the resultant supernatant was stored at -80° C. before being assayed for COX activity.
(§4) b. Assay for COX I and COX II activity:
(§5) COX activity was assayed as PGE2 formed/μg protein/time using an ELISA to detect the prostaglandin released. CHAPS-solubilized insect cell membranes containing the appropriate COX enzyme were incubated in a potassium phosphate buffer (50 mM, pH 8.0) containing epinephrine, phenol, and heme with the addition of arachidonic acid (10 μM). Compounds were pre-incubated with the enzyme for 10-20 minutes prior to the addition of arachidonic acid. Any reaction between the arachidonic acid and the enzyme was stopped after ten minutes at 37° C./room temperature by transferring 40 μl of reaction mix into 160 μl ELISA buffer and 25 μM indomethacin. The PGE2 formed was measured by standard ELISA technology (Cayman Chemical).

Human COX I = target: T2, Human COX I (Homo sapiens, UniProt P23219); assay: Evaluation of COX I activity in vitro (recombinant enzyme, PGE2 ELISA); type: biochemical; conditions: 10 μM arachidonic acid, pre-incubation 10-20 minutes, pH 8.0; read-out: Human COX I ID50
T2 construct: made in house; host or cells: SF9 insect cells, recombinant baculovirus (transfer vector pVL1393)
T2 sequence (P23219 24-599): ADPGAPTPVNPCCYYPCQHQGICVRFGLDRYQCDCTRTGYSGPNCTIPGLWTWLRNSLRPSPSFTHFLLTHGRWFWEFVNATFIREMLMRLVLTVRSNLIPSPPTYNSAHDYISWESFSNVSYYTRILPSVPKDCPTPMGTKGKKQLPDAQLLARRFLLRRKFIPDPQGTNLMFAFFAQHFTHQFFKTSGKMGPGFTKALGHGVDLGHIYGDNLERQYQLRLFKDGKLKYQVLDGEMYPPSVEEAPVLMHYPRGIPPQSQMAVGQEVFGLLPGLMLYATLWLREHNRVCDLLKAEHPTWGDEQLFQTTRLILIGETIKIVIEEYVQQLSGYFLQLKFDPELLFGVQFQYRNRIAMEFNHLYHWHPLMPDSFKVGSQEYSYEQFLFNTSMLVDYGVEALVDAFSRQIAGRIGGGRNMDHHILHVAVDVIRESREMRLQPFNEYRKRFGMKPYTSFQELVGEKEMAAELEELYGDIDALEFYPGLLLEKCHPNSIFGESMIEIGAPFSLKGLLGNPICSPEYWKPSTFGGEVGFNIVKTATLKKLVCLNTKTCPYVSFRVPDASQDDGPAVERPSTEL
From the text: as §1, §2, §3, §4, §5

Row | Structure (SMILES) | IC50 (Human COX II) [µM] | IC50 (Human COX I) [µM]
1 | COc1ccc2c(c1F)CSc1c(C(F)(F)F)nn(-c3ccc(S(N)(=O)=O)cc3)c1-2 [Example 1, 4-[1,5-Dihydro-6-fluoro-7-methoxy-3-(trifluoromethyl)-[2]benzothiopyrano[4,3-c]pyrazol-1-yl]benzenesulfonamide] | < 0.1 | 2.7
2 | NS(=O)(=O)c1ccc(-n2nc(C(F)(F)F)c3c2-c2ccccc2OC3)cc1 [Example 3, 4-[1,4-Dihydro-3-(trifluoromethyl)-[1]benzopyrano[4,3-c]pyrazol-1-yl]benzenesulfonamide] | 1.3 | –
3 | COC(=O)c1nn(-c2ccc(S(N)(=O)=O)cc2)c2c1COc1ccccc1-2 [Example 4, Methyl[1-[4-(aminosulfonyl)phenyl]-1,4-dihydro-[1]benzopyrano[4,3-c]pyrazol-3-yl]carboxylate] | 0.5 | –
4 | NS(=O)(=O)c1ccc(-n2nc(C(F)(F)F)c3c2-c2cc(F)ccc2OC3)cc1 [Example 5, 4-[1,4-Dihydro-8-fluoro-3-(trifluoromethyl)-[1]benzopyrano[4,3-c]pyrazol-1-yl]benzenesulfonamide] | 4.8 | 24.4
5 | NS(=O)(=O)c1ccc(-n2nc(C(F)(F)F)c3oc4ccccc4c32)cc1 [Example 6, 4-[3-(Trifluoromethyl)-1H-benzofuro[3,2-c]pyrazol-1-yl]benzenesulfonamide] | 23.5 | 11.1
6 | COC(=O)c1nn(-c2ccc(S(N)(=O)=O)cc2)c2c1CSc1ccccc1-2 [Example 8, Methyl[1-[(4-aminosulfonyl)phenyl]-1,4-dihydro-[1]benzothiopyrano[4,3-c]pyrazol-3-yl]carboxylate] | 0.5 | –
7 | NS(=O)(=O)c1ccc(-n2nc(C(F)(F)F)c3c2-c2ccc(Cl)c(Cl)c2SC3)cc1 [Example 9, 4-[6,7-Dichloro-1,4-dihydro-3-(trifluoromethyl)-[1]benzothiopyrano[4,3-c]pyrazol-1-yl]benzenesulfonamide] | 48.2 | > 100
8 | NS(=O)(=O)c1ccc(-n2nc(C(F)(F)F)c3c2-c2ccc(F)cc2SC3)cc1 [Example 10, 4-[1,4-Dihydro-7-fluoro-3-(trifluoromethyl)-[1]benzothiopyrano[4,3-c]pyrazol-1-yl]benzenesulfonamide] | < 0.1 | 6.2
9 | CC(C)c1cccc2c1SCc1c(C(F)(F)F)nn(-c3ccc(S(N)(=O)=O)cc3)c1-2 [Example 11, 4-[1,4-Dihydro-6-isopropyl-3-(trifluoromethyl)-[1]benzothiopyrano[4,3-c]pyrazol-1-yl]benzenesulfonamide] | 52 | > 100
10 | COc1cc2c(cc1OC)-c1c(c(C(F)(F)F)nn1-c1ccc(S(N)(=O)=O)cc1)CS2 [Example 12, 4-[1,4-Dihydro-7,8-dimethoxy-3-(trifluoromethyl)-[1]benzothiopyrano[4,3-c]pyrazol-1-yl]benzenesulfonamide] | 95 | > 100
11 | COc1ccc2c(c1)SCc1c(C(F)(F)F)nn(-c3ccc(S(N)(=O)=O)cc3)c1-2 [Example 13, 4-[1,4-Dihydro-7-methoxy-3-(trifluoromethyl)-[1]benzothiopyrano[4,3-c]pyrazol-1-yl]benzenesulfonamide] | < 0.1 | < 0.1
12 | Cc1ccc2c(c1)SCc1c(C(F)(F)F)nn(-c3ccc(S(N)(=O)=O)cc3)c1-2 [Example 14, 4-[1,4-Dihydro-7-methyl-3-(trifluoromethyl)-[1]benzothiopyrano[4,3-c]pyrazol-1-yl]benzenesulfonamide] | 0.2 | 4.6
13 | NS(=O)(=O)c1ccc(-n2nc(C(F)(F)F)c3c2-c2ccc(Cl)cc2SC3)cc1 [Example 15, 4-[7-Chloro-1,4-dihydro-3-(trifluoromethyl)-[1]benzothiopyrano[4,3-c]pyrazol-1-yl]benzenesulfonamide] | < 0.1 | 0.3
14 | NS(=O)(=O)c1ccc(-n2nc(C(F)(F)F)c3c2-c2ccccc2CS3)cc1 [Example 16, 4-[1,5-Dihydro-3-(trifluoromethyl)-[2]benzothiopyrano[4,3-c]pyrazol-1-yl]benzenesulfonamide] | < 0.1 | –
15 | Cc1ccc2c(c1)CSc1c(C(F)(F)F)nn(-c3ccc(S(N)(=O)=O)cc3)c1-2 [Example 17, 4-[1,5-Dihydro-7-methyl-3-(trifluoromethyl)-[2]benzothiopyrano[4,3-c]pyrazol-1-yl]benzenesulfonamide] | < 0.1 | 0.8
16 | Cc1ccc2c(c1)CSc1c(C(F)(F)F)nn(-c3ccc(S(C)(=O)=O)cc3)c1-2 [Example 18, 1,5-Dihydro-1-[4-(methylsulfonyl)phenyl]-7-methyl-3-(trifluoromethyl)-[2]benzothiopyrano[4,3-c]pyrazole] | < 0.1 | 3.7
17 | NS(=O)(=O)c1ccc(-n2nc(C(F)(F)F)c3c2-c2ccc(Cl)cc2CS3)cc1 [Example 19, 4-[7-Chloro-1,5-dihydro-3-(trifluoromethyl)-[2]benzothiopyrano[4,3-c]pyrazol-1-yl]benzenesulfonamide] | < 0.1 | 0.3

Other lines, results leading:

Row | IC50 (Human COX II) [µM] | IC50 (Human COX I) [µM] | Structure (SMILES)
18 | < 0.1 | < 0.1 | COc1ccc2c(c1)CSc1c(C(F)(F)F)nn(-c3ccc(S(N)(=O)=O)cc3)c1-2 [Example 20, 4-[1,5-Dihydro-7-methoxy-3-(trifluoromethyl)-[2]benzothiopyrano[4,3-c]pyrazol-1-yl]benzenesulfonamide]
19 | 3.5 | 51 | N#Cc1nn(-c2ccc(S(N)(=O)=O)cc2)c2c1CSc1ccccc1-2 [Example 22, 1-[4-(Aminosulfonyl)phenyl]-1,4-dihydro-[1]benzothiopyrano[4,3-c]pyrazol-3-carbonitrile]
20 | 45.6 | 91.1 | NS(=O)(=O)c1ccc(-n2nc(C(F)(F)F)c3c2-c2cc(Cl)sc2C[S+]3[O-])cc1 (stereo not shown) [Example 24, 4-[7-chloro-1,5-dihydro-3-trifluoromethyl-thieno[3',2':4,5]thiopyrano-s-oxide[3,2-c]pyrazol-1-yl]benzenesulfonamide]
21 | < 0.1 | > 100 | COc1ccc2c(c1F)CSc1c(C(F)F)nn(-c3ccc(S(N)(=O)=O)cc3)c1-2 [Example 25, 4-[3-(difluoromethyl)-1,5-dihydro-6-fluoro-7-methoxy-[2]benzothiopyrano[4,3-c]pyrazol-1-yl]benzenesulfonamide]
22 | < 0.1 | 0.3 | NS(=O)(=O)c1ccc(-n2nc(C(F)(F)F)c3c2-c2ccc(F)cc2CS3)cc1 [Example 26, 4-[1,5-dihydro-7-fluoro-3-(trifluoromethyl)-[2]benzothiopyrano[4,3-c]pyrazol-1-yl]benzenesulfonamide]
23 | 4.7 | > 100 | NC(=O)c1nn(-c2ccc(S(N)(=O)=O)cc2)c2c1SCc1cc(F)ccc1-2 [Example 27, [1-(4-aminosulfonylphenyl)-1,5-dihydro-7-fluoro-[2]benzothiopyrano[4,3-c]pyrazol-3-yl]carboxamide]
24 | 1.2 | > 100 | COc1ccc2c(c1F)C[S+]([O-])c1c(C(F)(F)F)nn(-c3ccc(S(N)(=O)=O)cc3)c1-2 (stereo not shown) [Example 28, 4-[1,5-dihydro-6-fluoro-7-methoxy-3-(trifluoromethyl)-[2]benzothiopyrano-S-oxide[4,3-c]pyrazol-1-yl]benzenesulfonamide]
25 | 0.8 | 13.2 | COC(=O)c1nn(-c2ccc(S(N)(=O)=O)cc2)c2c1SCc1cc(F)ccc1-2 [Example 29, methyl[1-(4-aminosulfonylphenyl)-1,5-dihydro-7-fluoro-[2]benzothiopyrano[4,3-c]pyrazol-3-yl]carboxylate]

— patent US5547975A, “Benzopyranopyrazolyl derivatives for the treatment of inflammation” (priority 1994, dated 1996)
